Test [1] relates to MDA-MB-231. As to the kind of experiment: Cytotoxicity against human MDA-MB-231 cells after 96 hrs by MTT assay. Format: functional, cell-based. Particulars: MDA-MB-231, 96 h. A general note: Tetrazolium assays rely on reduction of a dye to a coloured formazan, in cell work by metabolically active cells.
Test [2] has as its system A549. Kind of test: Cytotoxicity against human A549 cells after 96 hrs by MTT assay. Format: functional, cell-based. Particulars: A549, 96 h.
Test [3] concerns PC-3. Kind of test: Cytotoxicity against human PC3 cells after 96 hrs by MTT assay. Format: functional, cell-based. Particulars: PC-3, 96 h.
In test [4] the test system is MOLT-4. As to the kind of experiment: Cytotoxicity against human MOLT4 cells after 96 hrs by MTT assay. It counts as functional, cell-based. The settings on record: MOLT-4, 96 h.
Test [5] deals with K562. As to the kind of experiment: Cytotoxicity against human K562 cells after 96 hrs by MTT assay. It counts as functional, cell-based. Particulars: K562, 96 h.
In test [6] the test system is A549 (Homo sapiens). Kind of test: Cell cycle arrest in human A549 cells assessed as accumulation at G0/G1 phase at 10 umol/L after 24 hrs by FACS relative to untreated control.
Test [7] relates to A549 (Homo sapiens). Kind of test: Cell cycle arrest in human A549 cells assessed as accumulation at G2/M phase at 10 umol/L after 24 hrs by FACS relative to untreated control. (A flow cytometer gives signals particle by particle.)
Test [8] has as its system A549 (Homo sapiens). Kind of test: Cell cycle arrest in human A549 cells assessed as accumulation at S phase at 10 umol/L after 24 hrs by FACS relative to untreated control.

Bounds are passed on as bounds.

Turning to `CCCc1nc2cc3c(Nc4ccc(OC)c(OC)c4)ncnc3cc2n1CCCOC`, the IC50 (usually the concentration that inhibits the measured activity by half) in test [1] amounted to 20.6 µM; in test [2], 11.5 µM; in test [3], 24.6 µM; in test [4] it was 10.9 µM; in test [5], 14.3 µM.

`CCCCCCc1nc2cc3c(Nc4ccc(OC)cc4)ncnc3cc2n1CCCOCC`: the IC50 in test [1] was > 100 µM; in test [2] it was 39 µM; in test [3], > 100 µM; in test [4] it was > 100 µM; in test [5] it was 40.9 µM.

Turning to `CCOCCCn1c(Cc2ccccc2)nc2cc3c(Nc4ccc(OC)cc4)ncnc3cc21`, the 50% inhibitory concentration (IC50) in test [1] was 15.5 µM; in test [2] it was 22.1 µM; in test [3], > 100 µM; in test [4], > 100 µM; in test [5] it was 12.9 µM.

As to `COc1ccc(Nc2ncnc3cc4c(cc23)nc(C(C)C)n4C(C)C)cc1`, the IC50 in test [1] was 35.7 µM; in test [2] it was 6.26 µM; in test [3] it was > 100 µM; in test [4], > 100 µM; in test [5], > 100 µM.

Consider `CCOCCCn1c(CC(C)C)nc2cc3c(Nc4ccc(OC)cc4)ncnc3cc21`, for which the IC50 in test [1] was > 100 µM; in test [2], 2.81 µM; in test [3] it was > 100 µM; in test [4] it was > 100 µM; in test [5], 14.4 µM. For the same compound, the Activity in test [6] worked out at 81.47%. The “Percentage of cells in G2/M phase” value in test [7] came to 3.12%. Further, in test [8], the “percent of cells in S phase” value stood at 15.41%.

As to `CCCCn1c(C(C)C)nc2cc3c(Nc4ccc(OC)c(OC)c4)ncnc3cc21`, the IC50 in test [1] is 20 µM; in test [2] it was 5.58 µM; in test [3], > 100 µM; in test [4], 6.63 µM; in test [5], 18.5 µM.

As for `CCCCn1c(C(C)C)nc2cc3c(Nc4ccc(C)cc4)ncnc3cc21`, the IC50 in test [1] was 10.7 µM; in test [2], 12.1 µM; in test [3] it was 24.8 µM; in test [4], > 100 µM; in test [5] it was > 100 µM.

Consider `COCCCn1c(C(C)C)nc2cc3c(Nc4ccc(OC)cc4)ncnc3cc21`, for which the IC50 in test [1] is > 100 µM; in test [2] it was 15.8 µM; in test [3], > 100 µM; in test [4], > 100 µM; in test [5], > 100 µM.

For the compound `CCCCn1c(C(C)C)nc2cc3c(Nc4ccc(F)cc4)ncnc3cc21`, the IC50 in test [1] turned out to be 20 µM; in test [2], 4.25 µM; in test [3], 9.74 µM; in test [4], 11.4 µM; in test [5] it was 5.55 µM. The Activity in test [6] worked out at 86.28%. For the same compound, the “Percentage of cells in G2/M phase” value in test [7] turned out to be 2.99%. Also, the “percent of cells in S phase” value in test [8] worked out at 10.73%.

As to `CCCc1nc2cc3c(Nc4ccc(OC)cc4)ncnc3cc2n1CCCOCC`, the IC50 was > 100 µM in test [1]; 18.3 µM in test [2]; > 100 µM in test [3]; > 100 µM in test [4]; > 100 µM in test [5].

In the case of `COc1ccc(Nc2ncnc3cc4c(cc23)nc(C(C)C)n4C2CCCCC2)cc1`, the IC50 is 21.1 µM in test [1]; 7.31 µM in test [2]; 23 µM in test [3]; 7.69 µM in test [4]; 19.3 µM in test [5].

Turning to `CCCCn1c(C(C)C)nc2cc3c(Nc4ccc(OC)cc4)ncnc3cc21`, the IC50 in test [1] was > 100 µM; in test [2], 8.29 µM; in test [3], 18.9 µM; in test [4], 11.5 µM; in test [5], > 100 µM.

On to `CCOCCCn1c(C(C)C)nc2cc3c(Nc4ccc(OC)cc4)ncnc3cc21`, for which the IC50 was > 100 µM in test [1]; 4.59 µM in test [2]; > 100 µM in test [3]; > 100 µM in test [4]; 5.18 µM in test [5]. In addition, in test [6], the Activity is reported as 80.38%. In addition, in test [7], the “Percentage of cells in G2/M phase” value worked out at 3.4%. In addition, in test [8], the “percent of cells in S phase” value was 16.22%.

On to `CC(C)c1nc2cc3c(Nc4ccccc4)ncnc3cc2n1C1CCCCC1`, for which the IC50 in test [1] was > 100 µM; in test [2] it was 22.1 µM; in test [3] it was 24.7 µM; in test [4] it was 2.83 µM; in test [5], 17.4 µM.

`CCOCCCn1c(CC)nc2cc3c(Nc4ccc(OC)cc4)ncnc3cc21`: the IC50 in test [1] is > 100 µM; in test [2] it was 6.05 µM; in test [3], > 100 µM; in test [4] it was > 100 µM; in test [5] it was > 100 µM.

`COc1cc2ncnc(Nc3ccc(F)c(Cl)c3)c2cc1OCCCN1CCOCC1` [GEFITINIB]: the Activity in test [6] was 76.12%. The “Percentage of cells in G2/M phase” value in test [7] came to 4.64%. The “percent of cells in S phase” value in test [8] amounted to 19.24%.

Source of the values: ChEMBL document CHEMBL1152829, “2,3-Disubstituted 8-arylamino-3H-imidazo[4,5-g]quinazolines: a novel class of antitumor agents” (Eur J Med Chem, 2009).
